# Target: T1, UCHL1 (Homo sapiens, UniProt P09936)
# T1 construct: made in house; host or cells: HEK293T
# T1 sequence (P09936 1-223): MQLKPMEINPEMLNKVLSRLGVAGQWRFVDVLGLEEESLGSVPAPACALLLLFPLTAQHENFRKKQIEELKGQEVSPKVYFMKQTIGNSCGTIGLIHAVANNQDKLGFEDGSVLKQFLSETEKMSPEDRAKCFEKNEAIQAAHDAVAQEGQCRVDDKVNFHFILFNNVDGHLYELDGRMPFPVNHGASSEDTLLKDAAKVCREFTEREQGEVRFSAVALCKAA
# Test: UCHL1 biochemical IC50 assay (fluorescence polarisation)
# Conditions: 30 min enzyme/compound pre-incubation at room temp, read after 2 hr incubation, read-out: Activity range (UCHL1 biochemical IC50 assay)
# Method in brief: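 FLAG-UCHL1 purified from transfected HEK293T cells was preincubated 30 min at room temperature with compound (8 points, 100–0.03 μM final) in Tris pH 7.5 buffer with Tween 20, BSA and beta-mercaptoethanol. Reaction started with 50 nM TAMRA-peptide–ubiquitin isopeptide substrate; fluorescence polarisation (ex 540/em 590 nm) read at once and after 2 h.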
row,Compound,IC50 [nM]
1,"CCc1nnc(NC(=O)C2CCN(C#N)C2)s1 (stereo not drawn) [Example 12, 1-cyano-N-(5-ethyl-1,3,4-thiadiazol-2-yl)pyrrolidine-3-carboxamide]",1000 to 10000
2,"C[C@H]1[C@@H](C(=O)Nc2cn(Cc3ccccc3)cn2)CCN1C#N [Example 149, (2S,3S)—N-(1-benzyl-1H-imidazol-4-yl)-1-cyano-2-methylpyrrolidine-3-carboxamide]",< 1000
3,"C[C@H]1[C@@H](C(=O)Nc2cc3cc(-c4cn[nH]c4)ccc3cn2)CCN1C#N [Example 266, (2S,3S)—N-(6-(1H-pyrazol-4-yl)isoquinolin-3-yl)-1-cyano-2-methylpyrrolidine-3-carboxamide]",< 1000
4,"N#CN1CCC(C(=O)Nc2ccc3c(cnn3Cc3ccccc3)c2)C1 (stereo not drawn) [Example 39, N-(1-benzyl-1H-indazol-5-yl)-1-cyano-pyrrolidine-3-carboxamide]",10000 to 30000
5,"N#CN1CCC(C(=O)Nc2ccc(-n3ccnc3)cn2)C1 (stereo not drawn) [Example 30, N-(5-(1H-imidazol-1-yl)pyridin-2-yl)-1-cyano-pyrrolidine-3-carboxamide]",10000 to 30000
6,"N#CN1CCC(C(=O)Nc2cnc(-c3ccccc3)nc2)C1 (stereo not drawn) [Example 37, 1-cyano-N-(2-phenyl-pyrimidin-5-yl)pyrrolidine-3-carboxamide]",10000 to 30000
7,"N#CN1CC[C@H](C(=O)Nc2cn3ccc(Br)cc3n2)C1 [Example 50, (S)-N-(7-bromoimidazo[1,2-a]pyridin-2-yl)-1-cyano-pyrrolidine-3-carboxamide]",1000 to 10000
8,"N#CN1CC[C@H](C(=O)Nc2nc3c(Br)cccc3s2)C1 [Example 48, (S)-N-(4-bromobenzo[d]thiazol-2-yl)-1-cyano-pyrrolidine-3-carboxamide]",1000 to 10000
9,"N#CN1CC[C@H](C(=O)Nc2cn(-c3ccc(F)cc3)cn2)C1 [Example 150, (S)-1-cyano-N-(1-(4-fluorophenyl)-1H-imidazol-4-yl)pyrrolidine-3-Carboxamide]",< 1000
10,"Cn1nc(NC(=O)[C@H]2CCN(C#N)C2)cc1-c1ccccc1 [Example 60, (S)-1-cyano-N-(1-methyl-5-phenyl-1H-pyrazol-3-yl)pyrrolidine-3-carboxamide]",< 1000
11,"N#CN1CC[C@H](C(=O)Nc2ncc(-c3ccccn3)s2)C1 [Example 70, (S)-1-cyano-N-(5-(pyridin-2-yl)thiazol-2-yl)pyrrolidine-3-carboxamide]",1000 to 10000
12,"N#CN1CC[C@@H](C(=O)Nc2ccc(-c3ccccc3)cn2)C1 [Example 71, (R)-1-cyano-N-(5-phenylpyridin-2-yl)pyrrolidine-3-carboxamide]",10000 to 30000
13,"N#CN1CC[C@H](C(=O)Nc2cc(-c3cccc(Cl)c3)ncn2)C1 [Example 257, (S)-N-(6-(3-chlorophenyl)pyrimidin-4-yl)-1-cyanopyrrolidine-3-carboxamide]",1000 to 10000
14,"CC1CC(C(=O)Nc2cc(-c3ccccc3)[nH]n2)CN1C#N (mixture of isomers) [Example 90, 1-cyano-5-methyl-N-(5-phenyl-1H-pyrazol-3-yl)pyrrolidine-3-carboxamide]",10000 to 30000
15,"N#CN1CC[C@H](C(=O)Nc2nc3c(s2)CN(C(=O)c2cccnc2)CC3)C1 [Example 196, (S)-1-cyano-N-(5-nicotinoyl-4,5,6,7-tetrahydrothiazolo[5,4-c]pyridin-2-yl)pyrrolidine-3-carboxamide]",< 1000
16,"N#CN1CC[C@H](C(=O)Nc2ccc(-c3ccccc3)cn2)C1 [Example 54, (S)-1-cyano-N-(5-phenylpyridin-2-yl)pyrrolidine-3-carboxamide]",1000 to 10000
17,"N#CN1CC[C@H](C(=O)Nc2cc(-c3ccccc3)ccn2)C1 [Example 268, (S)-1-cyano-N-(4-phenylpyridin-2-yl)pyrrolidine-3-carboxamide]",1000 to 10000
18,"N#CN1CC[C@H](C(=O)Nc2ccc3cccnc3n2)C1 [Example 56, (S)-1-cyano-N-(1,8-naphthyridin-2-yl)pyrrolidine-3-carboxamide]",10000 to 30000
19,"Cn1ncc2cc(-c3cnc(NC(=O)[C@H]4CCN(C#N)C4)s3)ccc21 [Example 226, (S)-1-cyano-N-(5-(1-methyl-1H-indazol-5-yl)thiazol-2-yl)pyrrolidine-3-carboxamide]",< 1000
20,"N#CN1CCC(C#N)(C(=O)Nc2ncc(-c3ccccc3)s2)C1 (stereo not drawn) [Example 81, 1,3-dicyano-N-(5-phenylthiazol-2-yl)pyrrolidine-3-carboxamide]",1000 to 10000
21,"N#CN1CC[C@H](C(=O)Nc2cn(C3CCOCC3)cn2)C1 [Example 161, (S)-1-cyano-N-(1-(tetrahydro-2H-pyran-4-yl)-1H-imidazol-4-yl)pyrrolidine-3-carboxamide]",< 1000

row,Compound,IC50 [nM]
1,"N#CN1CCC(C(=O)Nc2ncc(-c3ccccc3Cl)s2)C1 (stereo not drawn) [Example 6, N-(5-(2-chlorophenyl)thiazol-2-yl)-1-cyano-pyrrolidine-3-carboxamide]",1000 to 10000
2,"CCNC(=O)c1cccc(-c2cnc(NC(=O)[C@H]3CCN(C#N)C3)s2)n1 [Example 225, (S)-6-(2-(1-cyanopyrrolidine-3-carboxamido)thiazol-5-yl)-N-ethylpicolinamide]",< 1000
3,"CC1CN(Cc2cnc(NC(=O)[C@H]3CCN(C#N)C3)s2)CC(C)O1 (stereo partly drawn) [Example 142, (3S)-1-cyano-N-(5-((2,6-dimethylmorpholino)methyl)thiazol-2-yl)pyrrolidine-3-carboxamide]",1000 to 10000
4,"Cn1nccc1-c1ccc2nc(NC(=O)[C@H]3CCN(C#N)C3)sc2c1 [Example 123, (S)-1-cyano-N-(6-(1-methyl-1H-pyrazol-5-yl)benzo[d]thiazol-2-yl)pyrrolidine-3-carboxamide]",< 1000
5,"N#CN1CC[C@H](C(=O)Nc2cc(-c3cn[nH]c3)ccn2)C1 [Example 291, (S)-N-(4-(1H-pyrazol-4-yl)pyridin-2-yl)-1-cyanopyrrolidine-3-carboxamide]",1000 to 10000
6,"N#CN1CCC(C(=O)Nc2ccc(-c3ccccc3)nc2)C1 (stereo not drawn) [Example 35, 1-cyano-N-(6-phenylpyridin-3-yl)pyrrolidine-3-carboxamide]",1000 to 10000
7,"Cc1nc(NC(=O)[C@H]2CCN(C#N)C2)cn1Cc1ccccc1 [Example 178, (S)—N-(1-benzyl-2-methyl-1H-imidazol-4-yl)-1-cyanopyrrolidine-3-carboxamide]",< 1000
8,"N#CN1CC[C@H](C(=O)Nc2cn(Cc3cccnc3)cn2)C1 [Example 169, (S)-1-cyano-N-(1-(pyridin-3-ylmethyl)-1H-imidazol-4-yl)pyrrolidine-3-carboxamide]",< 1000
9,"N#CN1CCC(C(=O)Nc2ccc(C3CCCCC3)cn2)C1 (stereo not drawn) [Example 38, 1-cyano-N-(5-cyclohexyl-pyridin-2-yl)pyrrolidine-3-carboxamide]",1000 to 10000
10,"COc1cc(-c2ccc3nc(NC(=O)[C@H]4CCN(C#N)C4)sc3c2)c(OC)nn1 [Example 132, (S)-1-cyano-N-(6-(3,6-dimethoxypyridazin-4-yl)benzo[d]thiazol-2-yl)pyrrolidine-3-carboxamide]",< 1000
11,"N#CN1CC[C@H](C(=O)Nc2cc(-c3cccc4nccn34)ccn2)C1 [Example 253, (S)-1-cyano-N-(4-(imidazo[1,2-a]pyridin-5-yl)pyridin-2-yl)pyrrolidine-3-carboxamide]",< 1000
12,"COC[C@H]1CCCN1Cc1cnc(NC(=O)[C@H]2CCN(C#N)C2)s1 [Example 143, (S)-1-cyano-N-(5-(((R)-2-(methoxymethyl)pyrrolidin-1-yl)methyl)thiazol-2-yl)pyrrolidine-3-carboxamide]",1000 to 10000
13,"N#CN1CC[C@H](C(=O)Nc2cc3cc(-c4cn[nH]c4C(F)(F)F)ccc3cn2)C1 [Example 289, (S)-1-cyano-N-(6-(5-(trifluoromethyl)-1H-pyrazol-4-yl)isoquinolin-3-yl)pyrrolidine-3-carboxamide]",< 1000
14,"N#CN1CC[C@H](C(=O)Nc2cn(-c3cccc(F)c3)cn2)C1 [Example 151, (S)-1-cyano-N-(1-(3-fluorophenyl)-1H-imidazol-4-yl)pyrrolidine-3-carboxamide]",< 1000
15,"Cc1cnc(NC(=O)C2CCN(C#N)C2)s1 (stereo not drawn) [Example 7, 1-cyano-N-(5-methylthiazol-2-yl)pyrrolidine-3-carboxamide]",1000 to 10000
16,"N#CN1CC[C@H](C(=O)Nc2cc(-c3ccccc3)cnn2)C1 [Example 275, (S)-1-cyano-N-(5-phenylpyridazin-3-yl)pyrrolidine-3-carboxamide]",1000 to 10000
17,"N#CN1CCC(C(=O)Nc2cnc(-c3ccccc3)s2)C1 (stereo not drawn) [Example 10, 1-cyano-N-(2-phenylthiazol-5-yl)pyrrolidine-3-carboxamide]",10000 to 30000
18,"C[C@H]1[C@@H](C(=O)Nc2ncc(-c3ccccc3)s2)CCN1C#N [Example 72, (2S,3S)-1-cyano-2-methyl-N-(5-phenylthiazol-2-yl)pyrrolidine-3-carboxamide]",< 1000
19,"N#CN1CC[C@H](C(=O)Nc2cn3cc(C4CC4)ccc3n2)C1 [Example 129, (S)-1-cyano-N-(6-cyclopropylimidazo[1,2-a]pyridin-2-yl)pyrrolidine-3-carboxamide]",< 1000
20,"N#CN1CC[C@H](C(=O)Nc2ncc(-c3ccc(F)cc3)s2)C1 [Example 66, (S)-1-cyano-N-(5-(4-fluorophenyl)thiazol-2-yl)pyrrolidine-3-carboxamide]",< 1000
21,"C[C@H]1[C@@H](C(=O)Nc2ncc(C3CCOCC3)s2)CCN1C#N [Example 76, (2S,3S)-1-cyano-2-methyl-N-(5-(tetrahydro-2H-pyran-4-yl)thiazol-2-yl)pyrrolidine-3-carboxamide]",< 1000

# Source: patent US11472798B2 (Mission Therapeutics Limited, priority 2014, dated 2022)
